Like-named read-outs stand apart in the source and are kept apart here.
Experiments:
Format in all cases: cell-based
Androgen receptor (AR) = assay: Down-regulation/degradation of AR determined by Western blot in CWR22RV1 cells; details: concentration 100 nM, 24 h
Method: (§1) The Down-Regulation on the Protein Expression of Androgen Receptors AR and Brd4 Determined by Western Blot CWR22RV1 cells (National Collection of Authenticated Cell Cultures. TCHu100) FBS (Gibco, Cat. No. 10099-141) 0.01M PBS (Biosharp. Cat. No. 162262) RIPM1640 (Hyclone, Cat. No. 308090.01) Penicillin-Streptomycin (Hyclone. Cat. No. SV30010) DMSO (Sigma. Cat. No. D5879) Centrifuge tube, 15 ml (Excell Bio. Cat. No. CS015-0001) Cell culture plate (Excell Bio. Cat. No. CS016-0128) 6-well cell culture cluster (Corning, Cat. No. 3516) RIPA lysate buffer (Beyotime, Cat. No. P0013B) Protein loading buffer (Beyotime, Cat. No. P0015L) CA protein assay kit (Beyotime, Cat. No. P0012) SDS-PAGE gel preparation kit (Chengdu Baihe Technology Co., Ltd. Cat. No. PG112) Anti-β-tubulin mouse mAb (Zen Bioscience, Cat. No. 200608) Androgen Receptor ([…]) XP Rabbit mAb (CST. Cat. No. 5153) Anti-cMyc(D3N8F) Rabbit mAb (CST. Cat. No. 13987) Anti-BRD4(E2A7X) rabbit mAb (CST, Cat. No. 13440) Peroxidase Affinipure(HRP) Goat Anti-Mouse IgG (Zen Bioscience, Cat. No. 511103) Peroxidase Affinipure(HRP) Goat Anti-Rabbit IgG (Zen Bioscience, Cat. No. 511203) TBST (Biosharp. Cat. No. B[…]) ECL chemiluminescence kit (Beyotime, Cat. No. […]1 cells were subcultured in cell culture media, and then the cells in good growth condition were seeded in a 6-well plate at 2 ml/well (1×10^6 cells/well), and cultured overnight in a 37° C., 5% CO2 cell incubator. 2) The drug was prepared as a 10 mM stock solution with dimethyl sulfoxide (DMSO). […] The plate was gently tapped to thoroughly mix. In addition, the experiment included negative control wells (containing equal amount of DMSO) and positive control wells. 3) After culturing 24 hi, the cells were lysed with RIPA cell lysate, and the protein was extracted. […] The first antibody (Androgen Receptor ([…]) XP Rabbit mAb. Anti-cMyc(D3N8F) Rabbit mAb, Anti-BRD4(E2A7X) rabbit mAb and Anti-β-Tubulin Mouse mAb) was added and incubated overnight at 4° C. The membrane was rinsed with TBST solution three times, 10 min for each time. The secondary antibody (horseradish peroxidase labeled goat anti mouse IgG) was added and incubated at room temperature for 2 h, and then the membrane was washed with TBST solution three times, 10 m for each time. Finally. ECL chemiluminescence solution was added, and then photos were taken with automatic chemiluminescence instrument to collect pictures for analysis.

BRD4 = biological target: T1, BRD4 (Homo sapiens, UniProt O60885); assay: Down-regulation/degradation of BRD4 determined by Western blot in CWR22RV1 cells; details: concentration 100 nM, 24 h
T1 construct: CWR22RV1 cells were subcultured in cell culture media; endogenous in cells; host or cells: CWR22RV1 cells
Method: as §1

LNCaP/AR cells = assay: Inhibition of the proliferation of LNCap/AR cells (CCK-8); details: 144 h, read-out: LNCap/AR IC50
How it was run: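 Proliferation was read by CCK-8 (OD 450 nm, 1 h) after six days of compound exposure. Cells were seeded at 1000 per well overnight, then dosed in duplicate over nine 3-fold steps with a top final concentration of 10 μM in 0.1% DMSO; IC50 was fitted from inhibition curves.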

22RV1 cells = assay: Inhibition of the proliferation of drug-resistant prostate cancer cell 22RV1 (CCK-8); details: Homo sapiens; 22RV1 cells (enzalutamide-resistant), same method
How it was run: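 22RV1 cells, 1000/well in RPMI1640 with 10% FBS, treated in duplicate with 9-point 3-fold dilutions from 10 μM (0.1% DMSO final). After 6 days at 37 °C, CCK-8 added for 1 h and OD450 read. IC50 from dose-response inhibition fit.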

[1] = LNCaP/AR cells, 6 days culture, CCK-8

SMILES | IC50 (LNCaP/AR cells; [1]) [nM] | IC50 (22RV1 cells) [nM] | AR (% degradation) (Androgen receptor (AR)) | BRD4 (% degradation) (BRD4) | IC50 (LNCaP/AR cells; LNCaP/AR) [nM]
Cc1ccc(-c2c(C)noc2C)cc1N(CC(C)OC1CCN(c2ccc3c(c2)C(=O)N(C2CCC(=O)NC2=O)C3=O)CC1)c1ccc(C2(C#N)CC2)cc1 (stereo not shown) [Compound 106] | 501 to 2000 | < 100 | C (49%-20% of the target protein was degraded) | B (79%-50% of the target protein was degraded) | 
Cc1ccc(-c2c(C)noc2C)cc1N(CCCNc1ccc2c(c1)C(=O)N(C1CCC(=O)NC1=O)C2=O)c1ccc(C2(C#N)CC2)cc1 (stereo not shown) [Compound 172, 1-(4-((5-(3,5-Dimethylisoxazol-4-yl)-2-methylphenyl)(3-((2-(2,6-dioxopiperidin-3-yl)-1,3-dioxoisoindolin-5-yl)amino)propyl)amino)phenyl)cyclopropane-1-nitrile] | 501 to 2000 | 101 to 500 | D (<20% of the target protein was degraded) | D (<20% of the target protein was degraded) | 
Cc1ccc(-c2c(C)noc2C)cc1N(CCCOC1CN(c2cc3c(cc2F)C(=O)N(C2CCC(=O)NC2=O)C3=O)C1)c1ccc(C2(C#N)CC2)cc1 (stereo not shown) [Compound 120, 1-(4-((5-(3,5-dimethylisoxazol-4-yl)-2-methylphenyl)(3-((1-(2-(2,6-dioxopiperidin-3-yl)-6-fluoro-1,3-dioxoisoindol-5-yl)azetidin-3-yl)oxy)propyl)amino)phenyl)cyclopropane-1-carbonitrile] | 101 to 500 | < 100 | D (<20% of the target protein was degraded) | B (79%-50% of the target protein was degraded) | 
Cc1ccc(-c2c(C)noc2C)cc1N(CC1(COC2CN(c3ccc4c(c3)C(=O)N(C3CCC(=O)NC3=O)C4=O)C2)CC1)c1ccc(C2(C#N)CC2)cc1 (stereo not shown) [Compound 137, 1-(4-((5-(3,5-Dimethylisoxazol-4-yl)-2-methylphenyl)((1-(((1-(2-(2,6-dioxopiperidin-3-yl)-1,3-dioxoisoindolin-5-yl)azetidin-3-yl)oxy)methyl)cyclopropyl)methyl)amino)phenyl)cyclopropane-1-nitrile] | > 2000 | > 2000 | C (49%-20% of the target protein was degraded) | B (79%-50% of the target protein was degraded) | 
Cc1ccc(-c2c(C)noc2C)cc1N(CCCCCNc1ccc2c(c1)CN(C1CCC(=O)NC1=O)C2=O)c1ccc(C#N)c(Cl)c1 (stereo not shown) [Compound 63, 2-chloro-4-((5-(3,5-dimethylisoxazol-4-yl)-2-methylphenyl)(5-((2-(2,6-dioxopiperidin-3-yl)-1-oxoisoindolin-5-yl)amino)pentyl)amino)benzonitrile] |  | < 100 | C (49%-20% of the target protein was degraded) | C (49%-20% of the target protein was degraded) | < 100
Cc1ccc(-c2c(C)noc2C)cc1N(CC1CC(Nc2cc3c(cc2F)C(=O)N(C2CCC(=O)NC2=O)C3=O)C1)c1ccc(C2(C#N)CC2)cc1 (stereo not shown) [Compound 37] | 501 to 2000 | 101 to 500 | D (<20% of the target protein was degraded) | D (<20% of the target protein was degraded) | 

The next lines start with results.

IC50 (LNCaP/AR cells; [1]) [nM] | IC50 (22RV1 cells) [nM] | SMILES | AR (% degradation) (Androgen receptor (AR)) | BRD4 (% degradation) (BRD4) | IC50 (LNCaP/AR cells; LNCaP/AR) [nM]
501 to 2000 | 501 to 2000 | Cc1ccc(-c2c(C)noc2C)cc1N(CCCOC1CN(c2cc3c(cc2F)CN(C2CCC(=O)NC2=O)C3=O)C1)c1ccc(C2(C#N)CC2)cc1 (stereo not shown) [Compound 123, 1-(4-((5-(3,5-dimethylisoxazol-4-yl)-2-methylphenyl)(3-((1-(2-(2,6-dioxopiperidin-3-yl)-6-fluoro-3-oxoisoindolin-5-yl)azetidin-3-yl)oxy)propyl)amino)phenyl)cyclopropane-1-nitrile] | D (<20% of the target protein was degraded) | C (49%-20% of the target protein was degraded) | 
101 to 500 | < 100 | Cc1ccc(-c2c(C)noc2C)cc1N(CCCOC1CN(c2cc3c(cc2F)C(=O)N(C2CCC(=O)NC2=O)C3)C1)c1ccc(C2(C#N)CC2)cc1 (stereo not shown) [Compound 124, 1-(4-((5-(3,5-dimethylisoxazol-4-yl)-2-methylphenyl)(3-((1-(2-(2,6-dioxopiperidin-3-yl)-6-fluoro-1-oxoisoindolin-5-yl)azetidin-3-yl)oxy)propyl)amino)phenyl)cyclopropane-1-nitrile] | B (79%-50% of the target protein was degraded) | B (79%-50% of the target protein was degraded) | 
501 to 2000 | 101 to 500 | Cc1ccc(-c2c(C)noc2C)cc1N(CC1CCN(c2cc3c(cc2F)C(=O)N(C2CCC(=O)NC2=O)C3)CC1)c1ccc(C2(C#N)CC2)cc1 (stereo not shown) [Compound 128, 1-(4-((5-(3,5-dimethylisoxazol-4-yl)-2-methylphenyl)((1-(2-(2,6-dioxopiperidin-3-yl)-6-fluoro-1-oxoisoindolin-5-yl)piperidin-4-yl)methyl)amino)phenyl)cyclopropane-1-nitrile] | D (<20% of the target protein was degraded) | C (49%-20% of the target protein was degraded) | 
101 to 500 | < 100 | Cc1ccc(-c2c(C)noc2C)cc1N(C[C@H]1CC[C@H](CNc2ccc3c(c2)CN(C2CCC(=O)NC2=O)C3=O)CC1)c1ccc(C2(C#N)CC2)cc1 (stereo partly shown) [Compound 194] | D (<20% of the target protein was degraded) | D (<20% of the target protein was degraded) | 
< 100 | < 100 | Cc1ccc(-c2c(C)noc2C)cc1N(CC1CCN(C2CN(c3cc4c(cc3F)CN(C3CCC(=O)NC3=O)C4=O)C2)CC1)c1ccc(C2(C#N)CC2)cc1 (stereo not shown) [Compound 159] | C (49%-20% of the target protein was degraded) | B (79%-50% of the target protein was degraded) | 
101 to 500 | 101 to 500 | Cc1ccc(-c2c(C)noc2C)cc1N(CC1CCN(c2cc3c(cc2F)CN(C2CCC(=O)NC2=O)C3=O)CC1)c1ccc(C2(C#N)CC2)cc1 (stereo not shown) [Compound 127, 1-(4-((5-(3,5-dimethylisoxazol-4-yl)-2-methylphenyl)((1-(2-(2,6-dioxopiperidin-3-yl)-6-fluoro-3-oxoisoindolin-5-yl)piperidin-4-yl)methyl)amino)phenyl)cyclopropane-1-nitrile] | D (<20% of the target protein was degraded) | B (79%-50% of the target protein was degraded) | 
501 to 2000 | 501 to 2000 | Cc1ccc(-c2c(C)noc2C)cc1N(CCOC1(C)CN(c2cc3c(cc2F)C(=O)N(C2CCC(=O)NC2=O)C3)C1)c1ccc(C2(C#N)CC2)cc1 (stereo not shown) [Compound 113, 1-(4-((5-(3,5-Dimethylisoxazol-4-yl)-2-methylphenyl)(2-((1-(2-(2,6-dioxopiperidin-3-yl)-6-fluoro-1-oxoisoindolin-5-yl)-3-methylazetidin-3-yl)oxy)ethyl)amino)phenyl)cyclopropanecarbonitrile] | D (<20% of the target protein was degraded) | C (49%-20% of the target protein was degraded) | 

From patent publication US20220257774A1, “AROMATIC AMINE AR AHD BET TARGETING PROTEIN DEGRADATION CHIMERA COMPOUND AND USE” (HINOVA PHARMACEUTICALS INC., priority 2019, published 2022)
